Like-named read-outs stand apart in the source and are kept apart here.
Experiments:
[1] = relative volatility compared to butyl acetate; cited from earlier work
[2] = Solvent miscibility and compatibility with ethoxyethyl cyanoacrylate; format: physicochemical; conditions: 3 ml solvent + 3 ml EECA
Description: (§1) Next, the solvents were tested for miscibility and compatibility with cyanoacrylate esters. Briefly, beginning with 3 ml samples each of butyl cyanoacrylate (BCA), octyl cyanoacrylate (OCA) and ethoxyethyl cyanoacrylate (EECA), 3 ml of each solvent was added drop-wise to each cyanoacrylate sample and agitated to aid mixing. Observations of the samples were taken immediately and then at regular intervals over 7 days. […] The remaining 10 solvents were ranked according to their compatibility with the cyanoacrylate esters based primarily on their compatibility with BCA over 7 days, secondarily on their compatibility with OCA, and finally on their miscibility with EECA.

[3] = Solvent miscibility and compatibility with butyl cyanoacrylate; format: physicochemical; set-up: key: V = slightly viscous; VV = viscous; VVV = very viscous; Lyr = layers; Pl = pale; Lt = light; Y = yellow; RX = reacts; Gry = grey; Brn = brown; Blk = black; conditions: 3 ml solvent + 3 ml BCA
Description: as §1

[4] = Solvent miscibility and compatibility with cyanoacrylate esters (overall); format: physicochemical; conditions: observations over 7 days
Description: as §1

[5] = Solvent miscibility and compatibility with octyl cyanoacrylate; format: physicochemical; set-up: key: V = slightly viscous; VV = viscous; VVV = very viscous; Lyr = layers; Pl = pale; Lt = light; Y = yellow; RX = reacts; Gry = grey; Brn = brown; Blk = black; conditions: 3 ml solvent + 3 ml OCA
Description: as §1

rat = conditions: oral dose administered to rat; cited from earlier work
[6] = cited from earlier work
[7] = Solvent compatibility with viscosity-increasing polymer, viscosity of solution: CAB; format: physicochemical; set-up: unit not given here; conditions: polymer added at 5% by weight, up to 3 days agitation
[8] = Solvent compatibility with viscosity-increasing polymer, viscosity of solution: MMA; format: physicochemical; set-up: unit not given here; conditions: polymer added at 5% by weight, up to 3 days agitation
[9] = Solvent compatibility with viscosity-increasing polymer, viscosity of solution: IB; format: physicochemical; conditions: polymer added at 5% by weight, up to 3 days agitation
[10] = Solvent compatibility with viscosity-increasing polymer, viscosity of solution: Cap; format: physicochemical; conditions: polymer added at 5% by weight, up to 3 days agitation
[11] = Solvent compatibility with viscosity-increasing polymer, viscosity of solution: VEE; format: physicochemical; set-up: unit not given here; conditions: polymer added at 5% by weight, up to 3 days agitation

SMILES | VL (volatility) [1] | EECA compatibility, 1 Day ([2]; 1 Day) | EECA compatibility, 2 Day ([2]; 2 Day) | EECA compatibility, 7 Day ([2]; 7 Day) | BCA compatibility, 1 Day ([3]; 1 Day) | BCA compatibility, 2 Day [3] | BCA compatibility, 7 Day [3] | Reaction with the cyanoacrylate esters [4] | OCA compatibility, 1 Day ([5]; 1 Day) | OCA compatibility, 2 Day ([5]; 2 Day) | OCA compatibility, 7 Day ([5]; 7 Day) | TOX (toxicity, LD50) (rat) [mg/kg] | VP (vapor pressure) ([6]; at 20 ° C.) | Viscosity of solution with CAB [7] | VP (vapor pressure) ([6]; at 39.5 ° C.) | Viscosity of solution with MMA [8] | Viscosity of solution with IB [9] | Viscosity of solution with Cap [10] | Viscosity of solution with VEE [11]
CC(=O)C(C)C [3-Methyl 2-butanone] | 2.9 | LtBrn | LtGry | LtGry | Gry | Blk | Blk | apparent reactions | VV | VV | VV | 3078 | 42@20 mmHg | – | – | – | – | – | –
CC(C)=O [Acetone] | 7.7 | – | – | – | – | V | VV | apparent reactions | – | – | – | – | – | 1.8 | 400@39.5 mmHg | 2.4 | – | – | –
Cc1ccccc1 [Toluene] | 2.24 | – | – | – | – | – | – | – | – | – | – | – | 22@20 mmHg | – | – | – | 20 | 3.7 | 3.1

From patent US20150136150A1, “DURABLE SKIN MARKING COMPOSITIONS” (OP-MARKS, INC., priority 2011, published 2015)
